SMILES strings stand for the structures.

The subject of one test is pAKT. Nature of the test: Immunoblot with densitometric quantification. The format is cell-based, human. On the procedure:
Protein concentration was determined using the BCA Protein Assay (Pierce), and 20-50 μg of lysate were separated in a 4-12% SDS-PAGE gel. After transfer, membranes were blocked for 15-30 min at room temperature in 5% BSA (Sigma) in Tris-buffered saline containing 0.1% Tween-20. Primary antibody was incubated for either 1.5 hours at room temperature or overnight at 4° C. Secondary antibody was incubated for 30-45 min at room temperature, and proteins were visualized with West Pico Stable (Pierce). All antibodies were used at 1:1000 dilution unless otherwise stated. pT308AKT, AKT, pT180/Y182, pT183/Y185 P38MAPK, pP38MAPK, pT202/Y204 pERK1/2, ERK1, pT183/Y185, pJNK1/2, JNK1, pT71ATF2, pT581MSK1, pT14 Cdc2, Cdc2, pT68Chk2 (cell signaling), pT334MAPKAPK, pS82HSP27 (Cell Signaling Technology, Danvers, Mass.), α-tubulin (Biomarkers, 1:50,000), Cyclin B1 (Santa Cruz Biotechnologies) and horseradish peroxidase-conjugated anti-rabbit IgG and anti-mouse IgG (1:5,000, Pierce).
Densitometric quantifications were carried out using ImageJ software (NIMH).
[…] The family of MAPK enzymes plays a pivotal role in cell growth, survival and cellular stress responses. […]
A general note: In western blotting, separated proteins are transferred to a membrane and probed.

The test system of another test is Cyclin B1 mRNA. Nature of the test: Quantitative Real-time PCR of Cyclin B1 mRNA. The format is cell-based, human. As to the method: Primers were designed using PrimerQuest software (Integrated DNA Technologies). RNA was extracted using Trizol (Invitrogen, Carlsbad, Calif., USA) using the manufacturer's protocol. 1 μg RNA was reverse-transcribed in a total volume of 20 μl using the Superscript First strand cDNA synthesis kit (Invitrogen). PCR was performed in triplicate using an ABI-Prism 7900 instrument (Applied Biosystems, Foster City, Calif.) and SYBR Green I detection (Applied Biosystems) according to the manufacturer's protocol. The expression of each target gene was normalized to the expression of GAPDH RNA and is presented as the ratio of the target gene to GAPDH RNA, expressed as 2-ΔCt, where Ct is the threshold cycle and ΔCt=Ct Target−Ct GAPDH.
No change in cyclin B1 levels were detected at earlier time points. The dephosphorylation of Cdk1 (Cdc2) at Thr14 is a critical event for its activation, permitting mitotic entry. Cdk1 protein levels remained unaltered, as did pT14Cdc2 levels (FIG. 17B). Quantitative Real-time PCR was carried out to determine whether Cyclin B1 inhibition was partially at the transcriptional level.
(Real-time PCR tracks product formation cycle by cycle.)

The test system of another test is DU145. Nature of the test: Cell cycle analysis with strigolactone removal. Particulars: for G2/M fraction: 24 hours, from 18%; for G2/M fraction 48 hours following removal: vehicle control 28.5%. The format is cell-based, human. On the procedure: Adherent cells were trypsinyzed, washed twice with PBS and filtered through a […] cell sieve. DNA content was assessed by flow cytometry. Cells were seeded at densities of 1.5×10^5 cells (MDA-MB-231, MDA-MB-436), or 4×10^5 cells (MCF-7 and MCF10A), or 2×10^5 cells (SW480, HT-29), or 5×10^5 cells (HCT116), per well in DMEM with 10% FBS in 6-well plate culture dishes. […] After 48 hours, cells were washed twice with PBS (pH 7.4), centrifuged at 360 g for 10 minutes at 4° C., and fixed in chilled ethanol (70%; v/v in PBS) with gentle vortex mixing. To determine their DNA contents, the cells were stained with 40 μg/ml propidium iodide (hereinafter PI) and analyzed using a FACSCalibur flow cytometer and CellQuest analysis software (Becton Dickinson, San Jose, Calif.). Where phosphoHistone-H3 staining was carried out, cells were incubated with polyclonal antibody against phosphoHistone H3 and then with secondary Goat anti-rabbit IgG-conjugated to FITC prior to PI staining.
To determine whether the strigolactone analogs induced G2 arrest, is also reversible upon strigolactone removal, DU145 cells were treated with MEB-55 for 24 hours, washed twice in PBS and then over-layed with fresh growth media minus MEB-55 and incubated for a further 48 hours (FIG. 17G).

The test system of test [1] is breast cancer cells both luminal (estrogen receptor positive) and basal (estrogen receptor negative). The test can be described thus: IC50 by number of cells per well versus control cultures. The format is cell-based. As to the method:
The IC50 values are defined herein as that concentration of active ingredient at which the number of cells per well at the end of the incubation period is only 50% of the number of cells in the control cultures. The IC50 values thus determined are, for the compounds of formula II, approximately from 0.1 to 50 μmoliliter.

For the compound `CC1=CC(O/C=C2\Cc3c(n(C)c4cc(-c5cccs5)ccc34)C2=O)OC1=O` (racemic) [MEB-55, (±) 2E-4-methyl-2-(4-methyl-5-oxo-2,5-dihydrofuran-2-yloxymethylene)-6-thiophen-2-yl-1,4-dihydro-2H-cyclopenta[b]indol-3-one], in the test on pAKT (DU145, 8 hours), the pAKT levels decrease was determined as 6 fold. In addition, in the test on pAKT (DU145, 24 hours), the pAKT levels entry is “undetectable levels”. For the same compound, the “Cyclin B1 mRNA compared to vehicle controls” value with Cyclin B1 mRNA (A549, 10 ppm) is on record as “two fold decrease”; in the test with Cyclin B1 mRNA (HCT116, 10 ppm), “two fold decrease”. Besides, the G2/M fraction with DU145 (DU145, 5 ppm) is on record as 46%; with DU145 (DU145, 10 ppm), 50%. The “G2/M fraction 48 hours following removal” value is on record as 29% in the test with DU145 (DU145, 5 ppm) and 29% with DU145 (DU145, 10 ppm).

In the case of `CC1=C[C@H](O/C=C2/C(=O)O[C@@H]3c4ccccc4C[C@H]23)OC1=O` (relative stereo) [GR-24, (3aR*,8bS*,E)-3-(((R*)-4-methyl-5-oxo-2,5-dihydrofuran-2-yloxy)methylene)-3,3a,4,8b-tetrahydro-2H-indeno[1,2-b]furan-2-one], the IC50 value entry in test [1] is reported as “in the range of micromolar concentration”.

The record behind these values is patent publication US10208007B2, “Use of strigolactones and strigolactone analogs for treating proliferative conditions” (The State of Israel, Ministry of Agriculture & Rural …, priority 2011, dated 2019).
